From patent US10092003B2, “Insect control device and associated methods” (Novel Textiles & Treatments LLC, priority 2014, dated 2018)

Assay: Transfluthrin evaporation / release rate from loaded fabric substrates (aging, acetone extraction, GC-MS)
Assay type: physicochemical
From the text: In some cases, release rates of the pyrethroids may range between about 0.1 milligrams per hour and about 3 milligrams per hour, as measured by gas chromatography mass spectroscopy (GC-MS). In some embodiments, the release rate may range between about 0.1 milligrams per hour and about 3 milligrams per hour, between about 0.5 milligrams per hour and about 3 milligrams per hour, or between about 1 milligrams per hour and about 3 milligrams per hour for an overall device of the invention, as measured by GC-MS. Other release rates are also possible. The release rate of the pyrethroid may be determined, for example, by immersing a loaded substrate in a suitable solvent (e.g., acetone) and sonicating. The substrate may then be rinsed and the solvent containing the released pyrethroid is collected. […]
Fabric samples comprised of cellulose or glass were prepared with Transfluthrin using either a wet application, or a wet application followed by a dry application, as described herein. […] The amount of Transfluthrin in the extracted sample was measured using a Restel Rtx®-5MS gas chromatography—mass spectrometry column. […] Evaporation rates, as determined by solvent extraction of Transfluthrin and followed by GC-MS as described previously, for cellulose fabric wet application and wet-and-dry application samples (Samples A and B in Table 1) are plotted in FIG. 3A and FIG. 3B, respectively. […]

`CC1(C)[C@H](C=C(Cl)Cl)[C@H]1C(=O)OCc1c(F)c(F)cc(F)c1F` [transfluthrin, Transfluthrin] gave an evaporation rate (combination of particle size distributions on 5″×4″ square fabric of cellulose) of 0.5 mg per 21 days and an evaporation rate (on an equivalent 20″×20″ cellulose fabric) of 10 mg per 21 days.
